This is an account of results in patent publication US20080319002A1, “Xanthine Derivatives a Useful as Muscarinic Receptor Antagonists” (RANBAXY LABORATORIES LIMITED, priority 2004, published 2008).

By melting point is commonly meant the temperature of the solid-liquid transition.

`O=C(NC[C@@H]1[C@H]2CN(CCc3ccc4c(c3)CCO4)C[C@@H]12)C1c2ccccc2Oc2ccccc21` [Compound No. 11, N-[(1α,5α,6α)-3-(2-(2,3-dihydro-benzofuran-5-yl)-ethyl)-3-aza-bicyclo[3.1.0]hex-6-ylmethyl]-9H-Xanthene-9-carboxylic acid amide] had a melting point of 165 °C.

Compound `O=C(N[C@H]1[C@@H]2CNC[C@@H]21)C1c2ccccc2Oc2ccccc21` [Compound No. 6] gave a melting point of 183 to 190 °C.
